# Data taken from patent US3966715A, “Herbicidal agents” (Bayer Aktiengesellschaft, priority 1966, dated 1976).
# Tests used:
# Type in all cases: in vivo
# Wheat [1] = assay: Post-emergence test, wheat; settings: three weeks
# Experimental: (§1) Solvent: 5 parts by weight acetone
# (§2) 1 part by weight benzyloxypolyglycol ether
# (§3) To produce a suitable preparation of the particular active compound, 1 part by weight of such active compound is mixed with the stated amount of solvent, the stated amount of emulsifier is then added and the resulting concentrate is thereafter diluted with water to the desired final concentration.
# (§4) Test plants which have a height of about 5--15 cm. are sprayed with the preparation of the given active compound until just dew moist. After three weeks, the degree of damage to the plants is determined and characterized by the values 0-5, which have the following meaning:
# (§5) The procedure of Example 2 is repeated, and the particular active compounds tested, and amounts applied, and the results obtained can be seen from the following Table 2E: […]
# test plants = assay: Post-emergence test, overall; settings: Example 2
# Experimental: as §1, §2, §3, §4, §5
# Echinochloa [2] = assay: Pre-emergence test, Echinochloa; settings: three weeks
# Experimental: as §1, §2, §3
# (§6) Seeds of the test plants are sown in normal soil and, after 24 hours, watered with the preparation of the given active compound. It is expedient to keep constant the amount of water per unit area. The concentration of the particular active compound in the preparation is of no importance, only the amount of active compound applied per unit area being decisive. After three weeks, the degree of damage to the test plants is determined and characterized by the values 0-5, which have the following meaning:
# (§7) The procedure of Example 1 is repeated, and the particular active compounds tested, the amounts applied, and the results obtained can be seen from the following Table 1D: […]
# Chenopodium [3] = assay: Post-emergence test, Chenopodium; settings: three weeks
# Experimental: as §1, §2, §3, §4, §5
# Cotton [4] = assay: Post-emergence test, cotton; settings: three weeks
# Experimental: as §1, §2, §3, §4, §5
# Echinochloa [5] = assay: Post-emergence test, Echinochloa; settings: three weeks
# Experimental: as §1, §2, §3, §4, §5
# Stellaria = assay: Post-emergence test, Stellaria; settings: three weeks
# Experimental: as §1, §2, §3, §4, §5
# Oats [6] = assay: Pre-emergence test, oats; settings: three weeks
# Experimental: as §1, §2, §3, §6, §7
# Wheat [7] = assay: Pre-emergence test, wheat; settings: three weeks
# Experimental: as §1, §2, §3, §6, §7
# Chenopodium [8] = assay: Pre-emergence test, Chenopodium; settings: three weeks
# Experimental: as §1, §2, §3, §6, §7
# Oats [9] = assay: Post-emergence test, oats; settings: three weeks
# Experimental: as §1, §2, §3, §4, §5
# Cotton [10] = assay: Pre-emergence test, cotton; settings: three weeks
# Experimental: as §1, §2, §3, §6, §7
# Sinapis = assay: Pre-emergence test, Sinapis; settings: three weeks
# Experimental: as §1, §2, §3, §6, §7
# plants and weeds = assay: General herbicidal activity; settings: compared with compound 221
structure (smiles),measurement,setting,value
"CSc1nnc(C(C)C)c(=O)n1N [Compound 21, 3-methylthio-4-amino-6-isopropyl-1,2,4-triazine-5-one]","degree of damage, Wheat",Wheat [1]; 0.01 % active compound,4-5
same,kind of herbicidal action,test plants,pronouncedly total-herbicidal action
"C=CCNc1nnc(-c2ccccc2)c(=O)n1N [Compound 26, 3-allylamino-4-amino-6-phenyl-1,2,4-triazine-5-one]","degree of damage, Echinochloa",Echinochloa [2]; 5 kg/hectare,4-5
same,"degree of damage, Chenopodium",Chenopodium [3]; 0.6 Kg/hectare,4-5
same,kind of herbicidal action,test plants,pronouncedly selective-herbicidal action in wheat and carrots
"CSc1nnc(-c2ccccc2)c(=O)n1N=Cc1ccccn1 [Compound 28, 3-methylthio-4-(pyrid-2'-yl-methylidene-amino)-6-phenyl-1,2,4-triazine-5-one]",kind of herbicidal action,test plants,pronouncedly selective-herbicidal action in snap beans and wheat
"CCCCNc1nnc(-c2ccccc2)c(=O)n1N [Compound 100a, 3-n-butylamino-4-amino-6-phenyl-1,2,4-triazine-5-one]","degree of damage, Wheat",Wheat [1]; 10 Kg/hectare,2-3
same,"degree of damage, Cotton",Cotton [4]; 10 Kg/hectare,2-3
same,"degree of damage, Echinochloa",Echinochloa [5]; 10 Kg/hectare,2-3
"Nn1c(NCc2ccccc2)nnc(-c2ccccc2)c1=O [Compound 102a, 3-benzylamino-4-amino-6-phenyl-1,2,4-triazine-5-one]","degree of damage, Cotton",Cotton [4]; 10 Kg/hectare,2-3
"CSc1nnc(C2CCCCO2)c(=O)n1N (centres unmarked) [Compound 163, 3-methylthio-4-amino-6-(tetrahydropyran-2'-yl)-1,2,4-triazine-5-one]","degree of damage, Wheat",Wheat [1]; 0.6 Kg/hectare,3-4
same,"degree of damage, Wheat",Wheat [1]; 1.2 Kg/hectare,4-5
same,"degree of damage, Chenopodium",Chenopodium [3]; 0.6 Kg/hectare,4-5
same,"degree of damage, Echinochloa",Echinochloa [5]; 2.4 Kg/hectare,4-5
"C=CCNc1nnc(C(C)C)c(=O)n1N [Compound 179, 3-(α-allylamino)-4-amino-6-isopropyl-1,2,4-triazine-5-one]","degree of damage, Chenopodium",Chenopodium [3]; 0.6 Kg/hectare,4-5
same,"degree of damage, Stellaria",Stellaria; 1.2 Kg/hectare,4-5
"CSc1nnc(C2CCCCC2)c(=O)n1NC(O)C(Cl)(Cl)Cl (stereo not drawn) [Compound 193, 3-methylthio-4-(β-trichloro-α-hydroxy-ethyl)-amino-6-cyclohexyl-1,2,4-triazine-5-one]","degree of damage, Oats",Oats [6]; 2.5 kg/hectare,4-5
same,"degree of damage, Wheat",Wheat [7]; 5 kg/hectare,4-5
same,"degree of damage, Chenopodium",Chenopodium [8]; 2.5 kg/hectare,4-5
same,"degree of damage, Oats",Oats [9]; 1.2 Kg/hectare,4-5
same,"degree of damage, Wheat",Wheat [1]; 2.4 Kg/hectare,4-5
"CSc1nnc(C(C)C)c(=O)n1N=C(C)C [Compound 194, 3-methylthio-4-(prop-2'-ylidene-amino)-6-isopropyl-1,2,4-triazine-5-one]","degree of damage, Wheat",Wheat [7]; 1.25 kg/hectare,4-5
same,"degree of damage, Cotton",Cotton [10]; 1.25 kg/hectare,4-5
same,"degree of damage, Wheat",Wheat [1]; 1.2 Kg/hectare,4-5
same,"degree of damage, Wheat",Wheat [1]; 2.4 Kg/hectare,4-5
same,"degree of damage, Cotton",Cotton [4]; 0.6 Kg/hectare,4-5
"COc1ccc(C=Nn2c(SC)nnc(C(C)C)c2=O)cc1 [Compound 207, 3-methylthio-4-(4'-methoxy-benzylidene-amino)-6-isopropyl-1,2,4-triazine-5-one]","degree of damage, Oats",Oats [6]; 5 kg/hectare,4-5
same,"degree of damage, Wheat",Wheat [7]; 5 kg/hectare,4-5
same,"degree of damage, Cotton",Cotton [10]; 5 kg/hectare,4-5
same,"degree of damage, Oats",Oats [9]; 2.4 Kg/hectare,4-5
same,"degree of damage, Wheat",Wheat [1]; 1.2 Kg/hectare,3-4
same,"degree of damage, Wheat",Wheat [1]; 2.4 Kg/hectare,3-4
same,"degree of damage, Cotton",Cotton [4]; 0.6 Kg/hectare,4-5
"CSc1nnc(C(C)C)c(=O)n1N=Cc1cccc([N+](=O)[O-])c1 [Compound 209, 3-methylthio-4-(3'-nitro-benzylidene-amino)-6-isopropyl-1,2,4-triazine-5-one]","degree of damage, Oats",Oats [6]; 2.5 kg/hectare,4-5
same,"degree of damage, Oats",Oats [6]; 5 kg/hectare,4-5
same,"degree of damage, Cotton",Cotton [10]; 1.25 kg/hectare,4-5
same,"degree of damage, Cotton",Cotton [10]; 2.5 kg/hectare,4-5
same,"degree of damage, Cotton",Cotton [10]; 5 kg/hectare,4-5
same,"degree of damage, Chenopodium",Chenopodium [8]; 1.25 kg/hectare,4-5
same,"degree of damage, Chenopodium",Chenopodium [8]; 2.5 kg/hectare,4-5
same,"degree of damage, Oats",Oats [9]; 2.4 Kg/hectare,4-5
"CSc1nnc(C(C)C)c(=O)n1N=Cc1ccc(C)cc1 [Compound 213, 3-methylthio-4-(4'-methyl-benzylidene-amino)-6-isopropyl-1,2,4-triazine-5-one]","degree of damage, Oats",Oats [6]; 1.25 kg/hectare,4-5
same,"degree of damage, Oats",Oats [6]; 2.5 kg/hectare,4-5
same,"degree of damage, Cotton",Cotton [10]; 2.5 kg/hectare,4-5
same,"degree of damage, Cotton",Cotton [10]; 5 kg/hectare,4-5
same,"degree of damage, Echinochloa",Echinochloa [2]; 1.25 kg/hectare,4-5
same,"degree of damage, Oats",Oats [9]; 1.2 Kg/hectare,3-4
same,"degree of damage, Oats",Oats [9]; 2.4 Kg/hectare,4-5
same,"degree of damage, Wheat",Wheat [1]; 0.6 Kg/hectare,2-3
same,"degree of damage, Wheat",Wheat [1]; 1.2 Kg/hectare,3-4
same,"degree of damage, Stellaria",Stellaria; 0.6 Kg/hectare,4-5
same,"degree of damage, Echinochloa",Echinochloa [5]; 0.6 Kg/hectare,4-5
"CSc1nnc(C(C)C)c(=O)n1N=CC(C)C [Compound 214, 3-methylthio-4-(isobutylidene-amino)-6-isopropyl-1,2,4-triazine-5-one]","degree of damage, Wheat",Wheat [7]; 2.5 kg/hectare,4-5
same,"degree of damage, Oats",Oats [9]; 0.6 Kg/hectare,4-5
same,"degree of damage, Cotton",Cotton [4]; 0.6 Kg/hectare,4-5
same,"degree of damage, Cotton",Cotton [4]; 1.2 Kg/hectare,4-5
"CSc1nnc(C(C)(C)C)c(=O)n1N=Cc1ccco1 [Compound 222, 3-methylthio-4-(furfur-2'-ylidene-amino)-6-tert.-butyl-1,2,4-triazine-5-one]","degree of damage, Oats",Oats [6]; 1.25 kg/hectare,4-5
same,"degree of damage, Wheat",Wheat [7]; 5 kg/hectare,4-5
same,"degree of damage, Cotton",Cotton [10]; 1.25 kg/hectare,4-5
same,"degree of damage, Sinapis",Sinapis; 1.25 kg/hectare,4-5
same,"degree of damage, Wheat",Wheat [1]; 2.4 Kg/hectare,4-5
same,"degree of damage, Stellaria",Stellaria; 0.6 Kg/hectare,4-5
same,usefulness as herbicide,plants and weeds,similarly useful
"CSc1nnc(C2CCCCC2)c(=O)n1N=Cc1ccccc1 [Compound 225, 3-methylthio-4-(benzylidene-amino)-6-cyclohexyl-1,2,4-triazine-5-one]","degree of damage, Cotton",Cotton [10]; 2.5 kg/hectare,4-5
same,"degree of damage, Echinochloa",Echinochloa [2]; 1.25 kg/hectare,4-5
same,"degree of damage, Oats",Oats [9]; 2.4 Kg/hectare,4-5
same,"degree of damage, Wheat",Wheat [1]; 0.6 Kg/hectare,3-4
same,"degree of damage, Echinochloa",Echinochloa [5]; 0.6 Kg/hectare,4-5
"CSc1nnc(C2CCCCC2)c(=O)n1N=Cc1ccco1 [Compound 226, 3-methylthio-4-(furfur-2'-ylidene-amino)-6-cyclohexyl-1,2,4-triazine-5-one]","degree of damage, Oats",Oats [6]; 5 kg/hectare,4-5
same,"degree of damage, Cotton",Cotton [10]; 5 kg/hectare,3-4
same,"degree of damage, Echinochloa",Echinochloa [2]; 2.5 kg/hectare,4-5
same,"degree of damage, Oats",Oats [9]; 2.4 Kg/hectare,4-5
same,"degree of damage, Cotton",Cotton [4]; 2.4 Kg/hectare,4-5
"CSc1nnc(C2CCCCC2)c(=O)n1N=C1CCCCC1 [Compound 227, 3-methylthio-4-(cyclohexylidene-amino)-6-cyclohexyl-1,2,4-triazine-5-one]","degree of damage, Wheat",Wheat [7]; 2.5 kg/hectare,4-5
same,"degree of damage, Wheat",Wheat [7]; 5 kg/hectare,4-5
same,"degree of damage, Sinapis",Sinapis; 1.25 kg/hectare,4-5
same,"degree of damage, Echinochloa",Echinochloa [2]; 1.25 kg/hectare,4-5
same,"degree of damage, Wheat",Wheat [1]; 2.4 Kg/hectare,4-5
same,"degree of damage, Chenopodium",Chenopodium [3]; 2.4 Kg/hectare,4-5
same,"degree of damage, Stellaria",Stellaria; 2.4 Kg/hectare,4-5
"CSc1nnc(C2CCCCC2)c(=O)n1N=CC(C)C [Compound 229, 3-methylthio-4-(isobutylidene-amino)-6-cyclohexyl-1,2,4-triazine-5-one]","degree of damage, Oats",Oats [6]; 2.5 kg/hectare,4-5
same,"degree of damage, Wheat",Wheat [7]; 5 kg/hectare,4-5
same,"degree of damage, Cotton",Cotton [10]; 5 kg/hectare,4-5
same,"degree of damage, Echinochloa",Echinochloa [2]; 1.25 kg/hectare,4-5
"CNc1nnc(C(C)(C)C)c(=O)n1N=Cc1ccccc1 [Compound 230, 3-methylamino-4-(benzylidene-amino)-6-tert.-butyl-1,2,4-triazine-5-one]","degree of damage, Oats",Oats [6]; 5 kg/hectare,4-5
same,"degree of damage, Wheat",Wheat [7]; 5 kg/hectare,4-5
same,"degree of damage, Cotton",Cotton [10]; 5 kg/hectare,4-5
same,"degree of damage, Sinapis",Sinapis; 2.5 kg/hectare,4-5
same,"degree of damage, Chenopodium",Chenopodium [8]; 2.5 kg/hectare,4-5
same,"degree of damage, Echinochloa",Echinochloa [2]; 2.5 kg/hectare,4-5
same,"degree of damage, Echinochloa",Echinochloa [2]; 5 kg/hectare,4-5
same,"degree of damage, Oats",Oats [9]; 2.4 Kg/hectare,4-5
same,"degree of damage, Stellaria",Stellaria; 0.6 Kg/hectare,4-5
same,"degree of damage, Echinochloa",Echinochloa [5]; 1.2 Kg/hectare,4-5
same,"degree of damage, Echinochloa",Echinochloa [5]; 2.4 Kg/hectare,4-5
"CNc1nnc(C(C)(C)C)c(=O)n1N=Cc1ccc(Cl)cc1 [Compound 233, 3-methylamino-4-(4'-chloro-benzylidene-amino)-6-tert.-butyl-1,2,4-triazine-5-one]","degree of damage, Echinochloa",Echinochloa [2]; 5 kg/hectare,4-5
same,"degree of damage, Oats",Oats [9]; 1.2 Kg/hectare,4-5
same,"degree of damage, Oats",Oats [9]; 2.4 Kg/hectare,4-5
same,"degree of damage, Wheat",Wheat [1]; 0.6 Kg/hectare,4-5
same,"degree of damage, Wheat",Wheat [1]; 1.2 Kg/hectare,4-5
same,"degree of damage, Cotton",Cotton [4]; 2.4 Kg/hectare,4-5
